A short description of this test: Induction of p53-dependent growth suppression of human LNZTA3 cells after 72 hrs by MTT assay.

The compound `CCCCC[C@H](O[C@@H]1O[C@@H]([C@H](O)CO)[C@H](O)[C@H]1OC(C)=O)c1c(O)cc2c(c1O)C(=O)c1c(O)cc(O)cc1C2=O` came in with an IC50 of 6.2 µM. Compound `CCCCC[C@H](O[C@@H]1O[C@@H]([C@H](O)CO)[C@H](O)[C@H]1O)c1c(O)cc2c(c1O)C(=O)c1c(O)cc(O)cc1C2=O` came in with an IC50 of 6.2 µM.

The record behind these values is BindingDB's records for doi:10.1021/np500581m (Institute of Microbial Chemistry (Bikaken), 2015).
